“Also recorded” adds a separate entry of the source. Where two headings read alike, the source gives them in different places.
Assays:
[1] = test system: HR; experiment: EJ-DR 384-well imaging assay, HR (GFP) readout; settings: read-out: HR IC50
[2] = test system: alt-NHEJ; experiment: EJ-DR 384-well imaging assay, alt-NHEJ (RFP) readout; settings: for Selectivity Index (HR IC50/alt-NHEJ IC50): Supplementary Table 2
[3] = test system: EJ-DR U2OS cells; experiment: Cytotoxicity in the absence of DSB ligands (CT), Hoechst cell count; format: cell-based, human; settings: Supplementary Table 2, mean ± SEM of four technical replicates
[4] = test system: alt-NHEJ; settings: ratio; Supplementary Table 2
[5] = Microsomal half-life study; format: in vitro ADME; settings: mouse, mouse liver microsomes; read-out: mouse liver microsome half-life
[6] = molecular target: T1, CYP2D6 (Homo sapiens, UniProt P10635); experiment: Cytochrome P450 inhibition assay in human liver microsomes, CYP2D6; format: in vitro ADME; settings: human liver microsomes
T1 construct: tissue Eurofins Scientific; host or cells: human liver microsomes
Description: CYP inhibition assays were performed by Eurofins Scientific. Test compounds were incubated with human liver microsomes, followed by compound detection using high performance liquid chromatography with tandem mass spectrometry (HPLC-MS/MS).

[7] = cited from earlier work
[8] = In vivo pharmacokinetic study, brain tissue; settings: female, athymic nude, mouse, brain, po, 30 mg/kg
Description: (§1) These measurements were used to calculate various pharmacokinetic parameters critical to bioavailability including time to reach maximum concentration (tmax), maximum concentration achieved (Cmax), and half-life (t1/2) (Figure 5C, 5D, Supplementary Table 1).
(§2) Compound concentrations were measured at these time-points using Liquid Chromatography with tandem mass spectrometry (LC-MS-MS). Pharmacokinetic studies were performed by orally dosing test compounds at 30 mg/kg dissolved in 50% PEG400 and 50% water in female athymic nude mice. Plasma and brain tissue concentration were measured using mass spectrometry (MS).

[9] = In vivo pharmacokinetic study, plasma
Description: as §1, §2

[10] = Cytotoxicity in the absence of DSB ligands (CT), Hoechst cell count; format: cell-based, human; settings: human, EJ-DR U2OS cells; no DSB ligands; Table 1; read-out: Cytotoxicity IC50
[11] = Homo sapiens, read-out: alt-NHEJ IC50
[12] = recurrent GBM patients, mibefradil with hypofractionated RT
[13] = oral 30 mg/kg, female athymic nude mice

T1 sequence (P10635 whole entry): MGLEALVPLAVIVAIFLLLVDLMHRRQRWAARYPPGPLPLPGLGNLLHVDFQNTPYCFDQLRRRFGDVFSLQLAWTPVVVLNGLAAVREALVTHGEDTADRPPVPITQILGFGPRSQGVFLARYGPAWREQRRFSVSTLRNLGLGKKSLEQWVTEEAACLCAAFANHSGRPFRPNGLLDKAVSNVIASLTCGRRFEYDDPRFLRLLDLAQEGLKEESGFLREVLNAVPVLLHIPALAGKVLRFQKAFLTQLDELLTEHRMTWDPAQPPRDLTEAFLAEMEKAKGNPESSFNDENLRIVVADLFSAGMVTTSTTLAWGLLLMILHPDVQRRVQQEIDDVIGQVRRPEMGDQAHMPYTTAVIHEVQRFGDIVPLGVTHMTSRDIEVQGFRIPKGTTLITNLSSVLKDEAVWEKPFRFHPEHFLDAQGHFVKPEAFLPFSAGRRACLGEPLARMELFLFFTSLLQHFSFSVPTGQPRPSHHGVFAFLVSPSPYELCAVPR

Row | IC50 ([1]; Homo sapiens) [µM] | Compound | IC50 [2, 11] [µM] | Selectivity Index (HR IC50/alt-NHEJ IC50) ([2]; ratio) | IC50 ([3]; Homo sapiens, U2OS) [µM] | also measured
1 | 31.6 ± 59.2 | NC1(C(=O)N[C@@H](CCO)c2ccc(Cl)cc2)CCN(c2ncnc3[nH]ccc23)CC1 [AZD 5363] | 16.9 ± 26.5 | 1.87 | 48.5 ± 73 | 
2 | > 60 | NC(=O)Nc1cc(-c2cccc(F)c2)sc1C(=O)N[C@H]1CCCNC1 [AZD 7762] | > 60 |  | 0.13 ± 0.01 | 
3 | 2.85 ± 1.04 | COc1ccc(-c2ccc3c(N4CCOC[C@@H]4C)nc(N4CCOC[C@@H]4C)nc3n2)cc1CO [AZD 8055] | 0.05 ± 0.01 | 57.00 | 0.89 ± 0.28 | 
4 | 4.53 ± 5.75 | Cn1ncc(Cl)c1-c1cc(C(=O)N[C@H](CN)Cc2cccc(F)c2)sc1Cl [Afuresertib] | 0.61 ± 0.46 |  | 14.2 ± 2.32 | Selectivity Index (HR IC50/alt-NHEJ IC50) [4]: 7.43
5 |  | O.O=C(O)C(F)(F)F.O=c1[nH]c2ccccc2n1C1CCN(Cc2ccc(-c3nc4cc5[nH]cnc5cc4nc3-c3ccccc3)cc2)CC1 [Akt-1/2 inhibitor] |  |  |  | IC50 ([1]; EJ-DR U2OS cells, text and figures): > 10 µM; selectivity index SI (CT IC50/alt-NHEJ IC50) ([2]; ratio): 77.67; IC50 ([2]; read-out: alt-NHEJ IC50, EJ-DR U2OS cells, text and figures): 0.15 µM
6 | 0.07 ± 0.03 | CO[C@H]1C[C@@H]2CC[C@@H](C)[C@@](O)(O2)C(=O)C(=O)N2CCCC[C@H]2C(=O)O[C@H]([C@H](C)C[C@@H]2CC[C@@H](OCCO)[C@H](OC)C2)CC(=O)[C@H](C)/C=C(\C)[C@@H](O)[C@@H](OC)C(=O)[C@H](C)C[C@H](C)/C=C/C=C/C=C/1C [Everolimus] | 0.05 ± 0.03 | 1.40 | 3.17 ± 2.05 | 
7 | 22.1 ± 1.84 | CC(C)NC[C@@H](C(=O)N1CCN(c2ncnc3c2[C@H](C)C[C@H]3O)CC1)c1ccc(Cl)cc1 [GDC-0068] | 9.4 ± 1.78 | 2.35 | 41.5 ± 3.32 | 
8 | 4.4 ± 5.17 | NC1(c2ccc(-c3nc4ccn5c(=O)[nH]nc5c4cc3-c3ccccc3)cc2)CCC1 [MK-2206] | 0.66 ± 0.31 | 6.67 | 16.5 ± 2.56 | 
9 | > 60 | COCC(=O)O[C@]1(CCN(C)CCCc2nc3ccccc3[nH]2)CCc2cc(F)ccc2[C@@H]1C(C)C [Mibefradil, mibefradil] |  |  |  | half-life [5]: 0.25 h; IC50 [6]: 0.6 µM; patients showing QT prolongation ([7]; mibefradil phase I trial, ref manuscript under preparation, 12): five out of 19; QT interval elongation, dose-limiting toxicity [7, 12]: 28%; sinus bradycardia, dose-limiting toxicity [7, 12]: 28%; half-life [8]: ~8 h; half-life ([9]; female, athymic nude, mouse, plasma, po, 30 mg/kg): 2.6 h; Cmax ([9]; female, athymic nude, mouse, plasma, po, 30 mg/kg, Maximum concentration (Cmax), oral 30 mg/kg, female athymic nude mice, YU252222 given as methyl ester prodrug): 1090 ng/mL; % AUC Extrapolation [9, 13]: 0.4%; AUC(0-x)/Dose [9, 13]: 161 ng·h/mL/mg/kg; Cmax/Dose [9, 13]: 36.3 ng/mL/mg/kg; Time at which Cmax was observed (tmax) [9, 13]: 1.0 h; effect on alt-NHEJ and HR in the EJ-DR assay ([2]; EJ-DR U2OS cells): selective inhibition of alt-NHEJ over HR without significant cellular cytotoxicity; also recorded: selective inhibition of alt-NHEJ over HR; IC50 ([2]; Homo sapiens, U2OS, read-out: alt-NHEJ IC50): ~4 µM; IC50 ([2]; Homo sapiens, read-out: nc-EJ IC50): 3.8 µM; IC50 at 96 h [10]: 10.5 µM
10 |  | O=c1cc(N2CCOCC2)oc2c(-c3cccc4c3sc3ccccc34)cccc12 [NU 4771] |  |  |  | effect on alt-NHEJ and HR in the EJ-DR assay ([2]; EJ-DR U2OS cells): increase in both alt-NHEJ and HR
11 |  | CCc1cncnc1N1CCN(Cc2nc3ccc(C(F)(F)F)cc3[nH]2)CC1 [PF-04708671] |  |  |  | IC50 ([1]; EJ-DR assay, Supplementary Table 2, mean ± SEM of four technical replicates): > 60 µM; IC50 ([2]; read-out: alt-NHEJ IC50, EJ-DR assay, Supplementary Table 2, mean ± SEM of four technical replicates): > 60 µM; IC50 [3]: 36.9 ± 3.82 µM

Source: article PMC8092340 (Oncotarget, 2021)
